Test results: US11173102B1, “Methods and compositions for removing color from color-treated hair” (L'Oreal, priority 2020, dated 2021)
Values joined by “and” are separate entries in the source; they are usually repeats but may differ in a detail not shown here. Equal values may be shown once.

What was measured:
[1] = Log Pow (octanol/water partition coefficient) of direct dyes; conditions: octanol/water partition coefficient of the dye
[2] = Color removal (ΔE) from hair swatches dyed with HC Blue 15, soaked 30 minutes at 40° C., shampooed once
Protocol: Unless otherwise indicated, hair swatches were all treated using the same protocol. Specifically, 2 g dyed hair swatches were soaked in 80 g treatment solutions or samples in water for 30 minutes at 40° C., then the treated hair swatches were then shampooed once and blow-dried for evaluation.

[3] = Color removal (ΔE) from HC blue 15 dyed, multiple-shampooed platinum bleached hair, with co-surfactants and cyclic compounds; conditions: 30 min 40° C.
[4] = Color removal (ΔE) from hair swatches dyed with hydroxyanthraquinoneaminopropyl methyl morpholinium methosulfate, 23° C.; conditions: 6% SLES in water; 30 min 23° C.
[5] = Controlled color removal of two-tone colored hair over one, three and six shampoo washes; conditions: 10% TBuMA Cl added to commercial shampoo containing about 9% SLES, up to six washes
Source text: The swatches were then washed with either the shampoo alone (control) or shampoo with TBuMA Cl and evaluated after one, three and six washes. Without addition of TBuMA Cl, the indigo color shifts to green as the number of shampoos increased. This is because Basic Red 51, a cationic direct dye, is washed out faster from hair by washing with shampoo than the HC Blue 15.

Molecule	Log Pow [1]	further results
Cc1ccc(Nc2ccc(Nc3ccc(C)cc3S(=O)(=O)[O-])c3c2C(=O)c2ccccc2C3=O)c(S(=O)(=O)[O-])c1.[Na+].[Na+] [ACID GREEN 25]	5.71	
HC RED NO. 7	0.13	
NCCNc1ccc(OCCO)cc1[N+](=O)[O-] [HC ORANGE NO. 2]	0.13	
Nc1ccc(O)cc1[N+](=O)[O-] [4-AMINO-3-NITROPHENOL]	1.19	
O=S(=O)(O)c1cc(S(=O)(=O)O)c2c(/N=N\c3ccc(S(=O)(=O)O)c4ccccc34)c(O)ccc2c1 [ACID RED18]	1.63	
CC1=CC(=C(c2cc(C)c(N)c(C)c2)c2c(Cl)cccc2Cl)C=C(C)C1=N.O=P(O)(O)O [HC BLUE NO. 15]	3.47	Log Pow ([1]; listed as HC Blue 15): around 3.47; Log Pow ([1]; listed as HC blue 15): around 3.47
sodium laureth sulfate [SLES]		ΔE ([2]; 0 wt.% organic salt, 3 wt. % SLES, 30 min 40° C.): 21.08 and 21.1; ΔE ([2]; 0 wt.% organic salt, 6 wt. % SLES, 30 min 40° C.): 21.81 and 21.4; ΔE ([2]; 0 wt.% organic salt, 12 wt. % SLES, 30 min 40° C.): 21.84; ΔE ([2]; SLES alone, over the concentrations tested (3-12 wt. %)): 21-22; ΔE ([3]; 6% SLES, hair pre-shampooed 4×): 19.3; ΔE ([3]; 6% SLES, hair pre-shampooed 6×): 15.01; ΔE [4]: 18.2
Cn1cc[n+](C)c1N=Nc1ccc(N)cc1.[Cl-] [BASIC ORANGE 31]	−2.31	
O=[N+]([O-])c1cc(N(CCO)CCO)ccc1NCCCO [HC VIOLET NO 2]	0.608	
COS(=O)(=O)[O-].C[N+]1(CCCNc2ccc(O)c3c2C(=O)c2ccccc2C3=O)CCOCC1 [hydroxyanthraquinoneaminopropyl methyl morpholinium methosulfate]	0.89	Log Pow ([1]; listed as hydroxyanthraquinoneaminopropyl methyl morpholinium methosulfate): around 0.89
CCN(CC)c1ccc2c(-c3ccc(S(=O)(=O)[O-])cc3S(=O)(=O)[O-])c3ccc(=[N+](CC)CC)cc-3oc2c1.[Na+] [ACID RED 52]	1.3	
CN(C)c1ccc(N=Nc2n(C)cc[n+]2C)cc1.[Cl-] [BASIC RED 51]	−1.97	Log Pow ([1]; listed as Basic Red 51): around −1.97
O=S(=O)([O-])c1ccc(N=Nc2c(O)ccc3ccccc23)cc1.[Na+] [ACID ORANGE 7]	1.4	
ACID YELLOW 3	−1.05	
O=[N+]([O-])c1cc(N(CCO)CCO)ccc1NCCO [HC BLUE NO. 2]	−0.32	
OCc1ccccc1 [Benzyl Alcohol, benzyl alcohol]		ΔE ([3]; 10% Benzyl Alcohol, hair pre-shampooed 6×): 9.4
Nc1c(N=Nc2ccc([N+](=O)[O-])cc2)c(S(=O)(=O)[O-])cc2cc(S(=O)(=O)[O-])c(N=Nc3ccccc3)c(O)c12.[Na+].[Na+] [ACID BLACK 1]	1.2	
O=C([O-])c1c(Cl)c(Cl)c(Cl)c(Cl)c1-c1c2cc(Br)c(=O)c(Br)c-2oc2c(Br)c([O-])c(Br)cc12.[Na+].[Na+] [ACID RED 92]	3	

Molecule	Log Pow [1]	further results
C[N+](C)(C)c1ccc2ccc(O)c(N=Nc3ccc(N)c([N+](=O)[O-])c3)c2c1.[Cl-] [BASIC BROWN 17]	−0.15	
Nc1ccc(N)c2c1C(=O)c1ccccc1C2=O [DISPERSE VIOLET 1]	3	
CCO [EtOH, ethanol]		ΔE ([3]; 16% EtOH, hair pre-shampooed 4×): 1.77; ΔE ([3]; 16% EtOH, hair pre-shampooed 6×): 1.8
COc1ccc([N+](=O)[O-])c(NCCN)c1.Cl [HC YELLOW NO.9]	1.3	
Cc1ccc(Nc2ccc(O)c3c2C(=O)c2ccccc2C3=O)c(S(=O)(=O)[O-])c1.[Na+] [ACID VIOLET 43]	3.1	
CC1=NN(c2ccccc2)C(=O)C1N=Nc1cccc([N+](C)(C)C)c1.[Cl-] (stereo not drawn) [BASIC YELLOW 57]	0.06	
CN(N=Cc1cc[n+](C)cc1)c1ccccc1 [BASIC YELLOW 87]	−1.69	
CCN(Cc1cccc(S(=O)(=O)[O-])c1)c1ccc(C(=C2C=CC(=[N+](CC)Cc3cccc(S(=O)(=O)[O-])c3)C=C2)c2ccccc2S(=O)(=O)[O-])cc1.[Na+].[Na+] [ACID BLUE 9]	−0.32	
O=C1c2ccccc2C(=O)c2c(NCC(O)CO)ccc(NCC(O)CO)c21 (stereo not drawn) [HC BLUE NO. 14]	2.09	
Cc1cc(N)c([N+](=O)[O-])cc1NCCO [HC VIOLET NO 1]	0.67	
Nc1ccc(NCCO)c([N+](=O)[O-])c1 [HC RED NO.3]	−0.42	
O=C([O-])C1=NN(c2ccc(S(=O)(=O)[O-])cc2)C(=O)C1N=Nc1ccc(S(=O)(=O)[O-])cc1.[Na+].[Na+].[Na+] (stereo not drawn) [ACID YELLOW 23]	−10.17	
C[N+](C)(C)c1cccc(N=C2C=C(N)c3c(O)c(Br)cc(N)c3C2=O)c1.[Cl-] [BASIC BLUE 99]	1.88	
Cc1cc(N(CCO)CCO)ccc1N=Nc1ccc(N)cc1 [HC YELLOW NO. 7]	2.59	
CCCC[N+](C)(CCCC)CCCC.[Cl-] [TBuMA Cl, tributylmethyl ammonium chloride]		ΔE ([2]; 10 wt.% organic salt, 0 wt. % SLES, 30 min 40° C.): 1.8; ΔE ([3]; 10% TBuMA Cl, hair pre-shampooed 4×): 3.63; leaching of Basic Red 51 ([5]; versus shampoo alone): deterred or inhibited; removal of HC Blue 15 ([5]; versus shampoo alone): accelerated; indigo color tone during shampooing [5]: maintained
O=[N+]([O-])c1cc(O)ccc1NCCO [3-NITRO-P-HYDROXYETHYLAMINOPHENOL]	0.21	
CNc1cc(OCC(O)CO)ccc1[N+](=O)[O-] (stereo not drawn) [2-NITRO-5-GLYCERYL METHYLANILINE]	0.89	
Nc1cc(S(=O)(=O)[O-])cc2cc(S(=O)(=O)[O-])c(N=Nc3ccccc3)c(O)c12.[Na+].[Na+] [ACID RED 33]	0.5	
